Assay results from patent US20220031680A1, “Donecopride As Neuroprotective Agent In the Treatment of Neurodegenerative Diseases” (priority 2018, published 2022).

Columns and labels:
[1] = tested on: C57Bl6/J mice challenged with an intracerebroventricular injection of Aβ1-42 oligomers (AβO); test: Y-maze test (spatial working memory) in mice icv injected with AβO; assay type: in vivo, mouse; settings: day +4
Method: Briefly, 144 C57Bl6/J male mice (3 months of age) were received and housed (4 to 5 per cage) in quarantine during 7 days, or longer. Test items were dosed per os (through oral gavage) once daily at different concentrations from day −1 to day +17.
At day 0, mice received a single icv injection of vehicle or AβO.
At day +4 (i.e. four days after disease induction), spatial working memory was assessed using the Y-maze test.
The different experimental groups are defined as follow: • GROUP A (vehicle CTRL): po vehicle AND icv injection of vehicle (n=12) • GROUP B (APO CTRL): po vehicle AND icv injection of AβO (n=12) • GROUP C (positive CTRL): po Donepezil subchronic AND icv injection of AβO (n=12) • GROUP D (Donecopride CTRL): po Donecopride (9 mg/kg) AND icv injection of vehicle (n=12) • GROUP E (Flucopride CTRL): po Flucopride (9 mg/kg) AND icv injection of vehicle (n=12) • GROUP F (Donecopride Treated): po Donecopride (1 mg/kg) AND icv injection of AβO (n=12) • GROUP G (Donecopride Treated): po Donecopride (3 mg/kg) AND icv injection of AβO (n=12) • GROUP H (Donecopride Treated): po Donecopride (9 mg/kg) AND icv injection of AβO (n=12) • GROUP I (Fluocopride Treated): po Flucopride (1 mg/kg) AND icv injection of AβO (n=12) • GROUP J (Flucopride Treated): po Flucopride (3 mg/kg) AND icv injection of AβO (n=12) • GROUP K (Flucopride Treated): po Flucopride (9 mg/kg) AND icv injection of AβO (n=12) • GROUP L (positive CTRL): ip Donepezil acute on test days AND icv injection of AβO (n=12)
For per os dosing, Donecopride and Flucopride were formulated by solubilization in 0.9% NaCl. Compound dosing (total volume of 200 μL) started one day before induction of the disease (through icv injection of AβO) and was done for 19 consecutive days.
Single intra-cerebroventricular injection of 144 mice with vehicle or APO (max. 24 mice per day, all mice randomized): under anesthesia (ip injection of a mixture of ketamine/xylasine at a dose of 110 and 15 mg/kg, respectively) AβO (1 μL), or vehicle (1 μL) were injected into the right lateral ventricle. Injections were made using 10 μL Hamilton micro syringes fitted with a 26-gauge needle. The procedure was terminated by a subcutaneous injection of metacam (analgesia) at a dose of 5 mg/kg. Animals were then placed individually in their home-cage and the cage was placed in a heated cabinet until the animal has fully recovered. Animals were carefully monitored to control recovery after anesthesia.
Preparation of APO: Aβ1-42 was obtained from Bachem (ref H1368) (batch number: 1052301). The preparation of stable Aβ1-42 oligomers was performed as described in Garcia et al. (2010) J. Neurosci. 30:7516-7527. The oligomeric preparation (identified as Batch #2016-14) contained a mixture of stable trimers and tetramers of Aβ1-42, as well as monomeric forms of the peptide. All oligomer preparations used were previously characterized in terms of oligomer composition and in vitro neurotoxicity.
6 independent trials involving each 24 mice (i.e. 2 mice from each experimental group) for a total of 144 mice at day +4—Behavioral tests were performed 1 h after dosing.
Detailed protocol: Immediate spatial working memory performance was assessed by recording spontaneous alternation behavior in a Y-maze. The maze is made of opaque Plexiglas and each of the three arms is 40 cm long, 14 cm high, 10 cm wide and positioned at equal angles. The apparatus is placed in a homogeneously lit test room to obtain 12-15 lux in all arms as well as in the central zone. Mice are placed in the middle of one arm and allowed to explore the maze freely during 5 min session. The series of arm entries are video recorded (Smart v3.0 software, Bioseb) and an arm entry is considered complete when the hind paws of the mouse are completely placed in the arm. Alternation is defined as successive entries into the 3 arms on overlapping triplet sets. […]

[2] = tested on: amyloid plaques; test: Number of amyloid plaques (thioflavin T) in 5×FAD mouse brain; assay type: in vivo; settings: 1 mg/kg twice a week for 3 months; for Amyloid plaque number in hippocampus: compared to controls
Method: 5×FAD mice received chronic treatments with drugs or vehicle according to 2 different protocols. In each experiment, drugs or vehicle solution were administered i.p. twice a week (1 mg/kg). In “Protocol 1”, mice (n=6-7 mice per group) were treated with compounds for two months, from 2 to 4 months of age. In “Protocol 2”, mice (n=7) were treated with compounds for three months, from 1 month to 4 months of age. At the end of each protocol, mice were anesthetized with a mixture of 100 mg/kg ketamine and 10 mg/kg xylazine in saline solution and perfused transcardially with PBS. Brains were quickly isolated on ice, the olfactory bulbs and cerebellum removed and the two hemispheres divided. One hemisphere was frozen on dry ice and stored at −80° C. for biochemical analysis, while the other was post-fixed in 4% PFA for immunohistochemistry (IHC).
Thirty-micrometer-thick sections were cut using a vibratome (Microm HM 650V, Thermo Scientific, Saint Herblain, France) and stored in cryoprotectant medium at −20° C. For the labeling of amyloid plaques, free-floating tissue sections of frontal cortex, hippocampus and entorhinal cortex (coordinates from the bregma: frontal cortex=1.98 mm, hippocampus=−1.94 mm, entorhinal cortex=−3.08 mm) were extensively washed in PBS and then incubated in blocking solution (PBS; 3% BSA; 0.1% Triton X-100) for 1 h. Sections were stained with Hoechst dye (1:1000, Life Technologies, Saint Aubin, France) for 15 minutes to detect cell nuclei and then with freshly prepared thioflavin T solution (#T3516-5G, Sigma-Aldrich) (final concentration: 0.01 mg/ml in blocking buffer) for 15 minutes. After washing in 70% ethanol for 5 minutes, samples were mounted on poly-lysine slides with coverslips. For GFAP (glial fibrillary acidic protein) staining, free-floating brain sections were blocked as before and incubated with polyclonal rabbit anti-GFAP (1:1000, Z0334, Dako, Les Ullis, France) at 4° C. overnight. After thioflavin T staining and washing with 70% ethanol, the secondary Alexafluor 594 goat anti-rabbit antibody (1:1000, A11012, Life Technologies) was added for 2 h. PBS washes and mounting were performed as described before.
Images were acquired with an Axiolmager Z1 microscope (Carl Zeiss S.A.S., Marly le Roi, France). Analysis of thioflavin T staining was performed blindly and data are presented as the mean number of particles per mm^2 in two to three tissue sections from the same brain area/animal (Image J software). GFAP expression was quantified using Image J software and results are expressed as area fractions.
28 female 5×FAD mice (C57BL/6J genetic background) were used in this study. Mice received vehicle or compounds (1 mg/kg) i.p., twice a week for three months, from 1 to 4 months of age.
Anti-amyloid effect. Frontal cortex, hippocampus and entorhinal cortex were analyzed as representative areas of 5×FAD mouse brain (frontal, median and caudal sections) and of human brain regions that are affected early by Alzheimer's disease and are highly enriched in amyloid deposits.

[3] = 9 mg/kg/day po, icv vehicle (no AβO)

With COc1cc(N)c(Cl)cc1C(=O)CCC1CCN(CC2CCCCC2)CC1 [Donecopride] the “alternation behavior (Y-maze)” value ([1]; 1 mg/kg/day po, icv AβO) was 56.6±3.7%, the “alternation behavior (Y-maze)” value ([1]; 3 mg/kg/day po, icv AβO) was 65.5±4.4% and the “alternation behavior (Y-maze)” value ([1]; 9 mg/kg/day po, icv AβO) was 64.3±5.1%. For the same molecule, the “alternation behavior (Y-maze)” value [1, 3] was 59.3±4.0%, the “Amyloid plaque number in hippocampus” value [2] was “not significantly different” and the “reduction of the number of amyloid plaques in entorhinal cortex” value ([2]; compared to vehicle) was 24±4%. For the same molecule, the “reduction of the number of amyloid plaques in frontal cortex” value ([2]; compared to vehicle) was 16±3%.
With COc1cc2c(cc1OC)C(=O)C(CC1CCN(Cc3ccccc3)CC1)C2 (stereo not drawn) [Donepezil, reference compound] the “alternation behavior (Y-maze)” value ([1]; ip acute on test day, icv AβO (Group L)) was 60.8±1.9% and the “alternation behavior (Y-maze)” value ([1]; per os subchronic, icv AβO (Group C)) was 66.1±1.8%.
In the case of COc1cc(N)c(F)cc1C(=O)CCC1CCN(CC2CCCCC2)CC1 [Flucopride], the “alternation behavior (Y-maze)” value ([1]; 1 mg/kg/day po, icv AβO) is reported as 67.1±2.7%, the “alternation behavior (Y-maze)” value ([1]; 3 mg/kg/day po, icv AβO) is reported as 65.3±4.1% and the “alternation behavior (Y-maze)” value ([1]; 9 mg/kg/day po, icv AβO) is reported as 59.1±3.0%. The “alternation behavior (Y-maze)” value [1, 3] was 63.1±2.3%, the “Amyloid plaque number in hippocampus” value [2] was “not significantly different” and the “reduction of the number of amyloid plaques in entorhinal cortex” value ([2]; compared to vehicle) was 28±6%.
